Results taken from patent publication US9221756B2, “Pyrrole derivatives” (priority 2011, dated 2015).
pIC50: −log10 of the molar value.

Molecular target: pneumolysin (Streptococcus pneumoniae serotype 2, UniProt Q04IN8)
Experiment: Inhibition of the haemolytic activity of pneumolysin (sheep erythrocytes)
Format: cell-based
Settings: IC50, inhibition of pneumolysin-induced haemolysis of sheep erythrocytes

Chain of pneumolysin (Q04IN8 whole entry): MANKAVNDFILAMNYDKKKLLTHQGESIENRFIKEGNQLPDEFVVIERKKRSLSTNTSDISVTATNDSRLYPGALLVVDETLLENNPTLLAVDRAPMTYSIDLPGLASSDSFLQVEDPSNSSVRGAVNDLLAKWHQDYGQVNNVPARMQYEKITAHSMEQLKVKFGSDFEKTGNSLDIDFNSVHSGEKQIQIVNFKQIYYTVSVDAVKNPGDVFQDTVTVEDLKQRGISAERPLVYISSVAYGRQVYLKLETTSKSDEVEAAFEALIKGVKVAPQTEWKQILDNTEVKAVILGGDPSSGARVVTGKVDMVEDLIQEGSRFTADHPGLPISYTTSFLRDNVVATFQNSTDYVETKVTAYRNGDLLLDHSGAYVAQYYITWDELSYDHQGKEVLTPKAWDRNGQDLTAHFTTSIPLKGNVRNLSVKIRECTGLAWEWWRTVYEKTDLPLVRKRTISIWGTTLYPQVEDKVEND

`COCCOCCOCCOCCOCCOCCOCCOCC(C)(C)C(=O)Oc1c(OC(=O)C(C)(C)COCCOCCOCCOCCOCCOCCOCCOC)c(C(=O)N(C)C)n(-c2ccc(OC)cc2)c1C(=O)N(C)C` [UL1-120, 2,5-bis(dimethylcarbamoyl)-1-(4-methoxyphenyl)-1H-pyrrole-3,4-diyl bis(25,25-dimethyl-2,5,8,11,14,17,20,23-octaoxahexacosan-26-oate)] was tested, and the pIC50 (class symbols of Table 1) was 4.70 to 5.00.
`CCOC(=O)c1c(O)c(O)c(C(=O)N(C)C)n1-c1ccc(OCCCN2CCOCC2)cc1` [UL1-102, ethyl 5-(dimethylcarbamoyl)-3,4-dihydroxy-1-(4-(3-morpholinopropoxy)phenyl)-1H-pyrrole-2-carboxylate] showed a pIC50 (class symbols of Table 1) of over 5.00.
Work on `COc1ccc(-n2c(C(=O)N(C)C)c(OCc3ccccc3)c(OCc3ccccc3)c2C(=O)N2CCOCC2)cc1` [UL1-058, 3,4-bis(benzyloxy)-1-(4-methoxyphenyl)-N,N-dimethyl-5-(morpholine-4-carbonyl)-1H-pyrrole-2-carboxamide] yielded a pIC50 (class symbols of Table 1) of 4.22 to 4.70.
Work on `CCOC(=O)c1c(O)c(OCC(N)=O)c(C(=O)OCC)n1-c1ccc(F)cc1` [UL2-029, diethyl 3-(2-amino-2-oxoethoxy)-1-(4-fluorophenyl)-4-hydroxy-1H-pyrrole-2,5-dicarboxylate] yielded a pIC50 (class symbols of Table 1) of 4.22 to 4.70.
Work on `CCOc1ccc(-n2c(C(=O)N(C)C)c(O)c(O)c2C(=O)N(C)C)cc1` [UL1-021, 1-(4-ethoxyphenyl)-3,4-dihydroxy-N^2,N^2,N^5,N^5-tetramethyl-1H-pyrrole-2,5-dicarboxamide] yielded a pIC50 (class symbols of Table 1) of over 5.00.
With `CCOC(=O)c1c(O)c(O)c(C(=O)OCC)n1-c1ccc(OC)c(I)c1` [UL2-033, diethyl 3,4-dihydroxy-1-(3-iodo-4-methoxyphenyl)-1H-pyrrole-2,5-dicarboxylate] the pIC50 (class symbols of Table 1) was over 5.00.
For `NC(=O)c1c(OCc2ccccc2)c(OCc2ccccc2)c(C(N)=O)n1-c1ccc(F)cc1` [UL1-075, 3,4-bis(benzyloxy)-1-(4-fluorophenyl)-1H-pyrrole-2,5-dicarboxamide], the pIC50 (class symbols of Table 1) was 4.22 to 4.70.
For `CCOc1ccc(-n2c(C(=O)N(CC)CC)c(OCc3ccccc3)c(OCc3ccccc3)c2C(=O)N(CC)CC)cc1` [UL1-045, 3,4-bis(benzyloxy)-1-(4-ethoxyphenyl)-N^2,N^2,N^5,N^5-tetraethyl-1H-pyrrole-2,5-dicarboxamide], the pIC50 (class symbols of Table 1) was over 5.00.
`CN(C)C(=O)c1c(O)c(O)c(C(=O)N(C)C)n1-c1ccc(C(F)(F)F)cc1` [UL1-028, 3,4-dihydroxy-N^2,N^2,N^5,N^5-tetramethyl-1-(4-(trifluoromethyl)phenyl)-1H-pyrrole-2,5-dicarboxamide] was tested, and the pIC50 (class symbols of Table 1) was over 5.00 and the pIC50 (specific values) was 7.17.
With `CCOC(=O)c1c(O)c(O)c(C(=O)OCC)n1-c1ccc2c(c1)OCO2` [UL2-019, diethyl 1-(benzo[d][1,3]dioxol-5-yl)-3,4-dihydroxy-1H-pyrrole-2,5-dicarboxylate] the pIC50 (class symbols of Table 1) was 4.22 to 4.70.
Compound `CCOC(=O)c1c(O)c(O)c(C(=O)OCC)n1-c1ccc(C)cc1` [UL2-010, diethyl 3,4-dihydroxy-1-(p-tolyl)-1H-pyrrole-2,5-dicarboxylate] has a pIC50 (class symbols of Table 1) of over 5.00.
Work on `CCOC(=O)c1c(O)c(O)c(C(=O)OCC)n1-c1ccc(OCCOCCOCCOC)cc1` [UL2-035, diethyl 3,4-dihydroxy-1-(4-(2-(2-(2-methoxyethoxy)ethoxy)ethoxy)phenyl)-1H-pyrrole-2,5-dicarboxylate] yielded a pIC50 (class symbols of Table 1) of over 5.00.
In the case of `CCOC(=O)c1c(O)c(O)c(-c2nc(CC)cs2)n1-c1ccc(OC)cc1` [UL1-086, ethyl 5-(4-ethylthiazol-2-yl)-3,4-dihydroxy-1-(4-methoxyphenyl)-1H-pyrrole-2-carboxylate], the pIC50 (class symbols of Table 1) was over 5.00.
`CCOC(=O)c1c(OCc2ccccc2)c(OCc2ccccc2)c(-c2nn[nH]n2)n1-c1ccc(OC)cc1` [UL1-090, ethyl 3,4-bis(benzyloxy)-1-(4-methoxyphenyl)-5-(2H-tetrazol-5-yl)-1H-pyrrole-2-carboxylate] showed a pIC50 (class symbols of Table 1) of over 5.00.
In the case of `CCNC(=O)c1c(O)c(O)c(C(=O)NCC)n1-c1ccc(OCC)cc1` [UL1-078, 1-(4-ethoxyphenyl)-N2,N5-diethyl-3,4-dihydroxy-1H-pyrrole-2,5-dicarboxamide], the pIC50 (class symbols of Table 1) was over 5.00.
In the case of `CCOC(=O)c1c(O)c(OCC(=O)OC(C)(C)C)c(C(=O)OCC)n1-c1ccc(OC)cc1` [UL2-030, diethyl 3-(2-(tert-butoxy)-2-oxoethoxy)-4-hydroxy-1-(4-methoxyphenyl)-1H-pyrrole-2,5-dicarboxylate], the pIC50 (class symbols of Table 1) was 4.70 to 5.00.
Work on `CCOC(=O)c1c(O)c(O)c(C(=O)OCC)n1-c1cccc(Oc2ccccc2)c1` [UL2-018, diethyl 3,4-dihydroxy-1-(3-phenoxyphenyl)-1H-pyrrole-2,5-dicarboxylate] yielded a pIC50 (class symbols of Table 1) of over 5.00.
`CCOC(=O)c1c(O)c(OCC(N)=O)c(C(=O)OCC)n1-c1ccc(OC)cc1` [UL2-031, diethyl 3-(2-amino-2-oxoethoxy)-4-hydroxy-1-(4-methoxyphenyl)-1H-pyrrole-2,5-dicarboxylate] showed a pIC50 (class symbols of Table 1) of 4.22 to 4.70.
`CCOC(=O)c1c(OCc2ccccc2)c(OCc2ccccc2)c(C(N)=O)n1-c1ccc(OC)cc1` [UL1-079, ethyl 3,4-bis(benzyloxy)-5-carbamoyl-1-(4-methoxyphenyl)-1H-pyrrole-2-carboxylate] was tested, and the pIC50 (class symbols of Table 1) was over 5.00.
Compound `CCOC(=O)c1c(O)c(O)c(C(=O)N(C)C)n1-c1ccc(OCCOCCOCCOC)cc1` [UL1-095, ethyl 5-(dimethylcarbamoyl)-3,4-dihydroxy-1-(4-(2-(2-(2-methoxyethoxy)ethoxy)ethoxy)phenyl)-1H-pyrrole-2-carboxylate] has a pIC50 (class symbols of Table 1) of over 5.00.
`COc1ccc(-n2c(C#N)c(O)c(O)c2C#N)cc1` [UL1-034, 3,4-dihydroxy-1-(4-methoxyphenyl)-1H-pyrrole-2,5-dicarbonitrile] showed a pIC50 (class symbols of Table 1) of 4.22 to 4.70.
Work on `CCOC(=O)c1c(O)c(O)c(C(=O)N(C)C)n1-c1ccc(OCCCP(=O)(OCC)OCC)cc1` [UL1-106, ethyl 1-(4-(3-(diethoxyphosphoryl)propoxy)phenyl)-5-(dimethylcarbamoyl)-3,4-dihydroxy-1H-pyrrole-2-carboxylate] yielded a pIC50 (class symbols of Table 1) of over 5.00 and a pIC50 (specific values) of 6.77.
Work on `COc1ccc(-n2c(C(=O)N3CCCCC3)c(O)c(O)c2C(=O)N2CCCCC2)cc1` [UL1-018, (3,4-dihydroxy-1-(4-methoxyphenyl)-1H-pyrrole-2,5-diyl)bis(piperidin-1-ylmethanone)] yielded a pIC50 (class symbols of Table 1) of over 5.00.
With `CCCOc1ccc(-n2c(C(=O)OCC)c(O)c(O)c2C(=O)OCC)cc1` [UL2-016, diethyl 3,4-dihydroxy-1-(4-propoxyphenyl)-1H-pyrrole-2,5-dicarboxylate] the pIC50 (class symbols of Table 1) was over 5.00.
`CCOC(=O)c1c(OC(=O)CCOC)c(OC(=O)CCOC)c(C(=O)N(C)C)n1-c1ccc(OC)cc1` [UL1-104, 2-(dimethylcarbamoyl)-5-(ethoxycarbonyl)-1-(4-methoxyphenyl)-1H-pyrrole-3,4-diyl bis(3-methoxypropanoate)] showed a pIC50 (class symbols of Table 1) of over 5.00.
In the case of `O=C(c1c(O)c(O)c(C(=O)N2CCOCC2)n1-c1ccc(F)cc1)N1CCOCC1` [UL1-006, (1-(4-fluorophenyl)-3,4-dihydroxy-1H-pyrrole-2,5-diyl)bis(morpholinomethanone)], the pIC50 (class symbols of Table 1) was over 5.00.
`CCOC(=O)c1c(OCC(=O)OC(C)(C)C)c(OCc2ccccc2)c(C(=O)OCC)n1-c1ccc(OC)cc1` [UL2-028, diethyl 3-(benzyloxy)-4-(2-(tert-butoxy)-2-oxoethoxy)-1-(4-methoxyphenyl)-1H-pyrrole-2,5-dicarboxylate] gave a pIC50 (class symbols of Table 1) of 4.22 to 4.70.
In the case of `CCOC(=O)c1c(OCc2ccccc2)c(OCc2ccccc2)c(C(=O)N(C)C)n1-c1ccc(I)cc1` [UL1-062, ethyl 3,4-bis(benzyloxy)-5-(dimethylcarbamoyl)-1-(4-iodophenyl)-1H-pyrrole-2-carboxylate], the pIC50 (class symbols of Table 1) was over 5.00.
Compound `COc1ccc(-n2c(C(=O)N(C)C)c(OCc3ccccc3)c(OCc3ccccc3)c2C(=O)N2CCCCC2)cc1` [UL1-057, 3,4-bis(benzyloxy)-1-(4-methoxyphenyl)-N,N-dimethyl-5-(piperidine-1-carbonyl)-1H-pyrrole-2-carboxamide] has a pIC50 (class symbols of Table 1) of over 5.00.
For `CCOC(=O)c1c(O)c(OCC(=O)OC(C)(C)C)c(C(=O)OCC)n1-c1ccc(F)cc1` [UL2-027, diethyl 3-(2-(tert-butoxy)-2-oxoethoxy)-1-(4-fluorophenyl)-4-hydroxy-1H-pyrrole-2,5-dicarboxylate], the pIC50 (class symbols of Table 1) was 4.70 to 5.00.
With `CCOC(=O)c1c(O)c(O)c(C#N)n1-c1ccc(F)cc1` [UL1-039, ethyl 5-cyano-1-(4-fluorophenyl)-3,4-dihydroxy-1H-pyrrole-2-carboxylate] the pIC50 (class symbols of Table 1) was 4.22 to 4.70.
With `COc1ccc(-n2c(C(=O)N(C)C)c(OCc3ccccc3)c(OCc3ccccc3)c2C(=O)N2CCN(C)CC2)cc1` [UL1-056, 3,4-bis(benzyloxy)-1-(4-methoxyphenyl)-N,N-dimethyl-5-(4-methylpiperazine-1-carbonyl)-1H-pyrrole-2-carboxamide] the pIC50 (class symbols of Table 1) was 4.70 to 5.00.
In the case of `CCOC(=O)c1c(O)c(OCCO)c(C(=O)OCC)n1-c1ccc(OC)cc1` [UL2-026, diethyl 3-hydroxy-4-(2-hydroxyethoxy)-1-(4-methoxyphenyl)-1H-pyrrole-2,5-dicarboxylate], the pIC50 (class symbols of Table 1) was 4.22 to 4.70.
In the case of `CCOC(=O)c1c(O)c(O)c(C(=O)N(C)C)n1-c1ccc(I)cc1` [UL1-042, ethyl 5-(dimethylcarbamoyl)-3,4-dihydroxy-1-(4-iodophenyl)-1H-pyrrole-2-carboxylate], the pIC50 (class symbols of Table 1) was over 5.00.
In the case of `CCOC(=O)c1c(O)c(O)c(C(=O)OCC)n1-c1ccc(OC(F)(F)F)cc1` [UL2-005, diethyl 3,4-dihydroxy-1-(4-(trifluoromethoxy)phenyl)-1H-pyrrole-2,5-dicarboxylate], the pIC50 (class symbols of Table 1) was over 5.00.
For `CC(C)(C)OC(=O)N1CCN(C(=O)c2c(O)c(O)c(C(=O)N3CCN(C(=O)OC(C)(C)C)CC3)n2-c2ccc(F)cc2)CC1` [UL1-009, di-tert-butyl 4,4′-(1-(4-fluorophenyl)-3,4-dihydroxy-1H-pyrrole-2,5-dicarbonyl)bis(piperazine-1-carboxylate)], the pIC50 (class symbols of Table 1) was over 5.00.
Compound `CCOc1ccc(-n2c(C(=O)N3CCOCC3)c(OCc3ccccc3)c(OCc3ccccc3)c2C(=O)N2CCOCC2)cc1` [UL1-053, (3,4-bis(benzyloxy)-1-(4-ethoxyphenyl)-1H-pyrrole-2,5-diyl)bis(morpholinomethanone)] has a pIC50 (class symbols of Table 1) of 4.70 to 5.00.
Work on `COc1ccc(-n2c(C(=O)N(C)C)c(O)c(O)c2C(=O)N2CCN(C)CC2)cc1` [UL1-027, 3,4-dihydroxy-1-(4-methoxyphenyl)-N,N-dimethyl-5-(4-methylpiperazine-1-carbonyl)-1H-pyrrole-2-carboxamide] yielded a pIC50 (class symbols of Table 1) of over 5.00.
